Calls of active or inactive are those of the source. No cut-off for these calls is given here.
Columns and labels:
Type in all cases: functional, cell-based
[1] = test system: HeLa; assay: Cytotoxicity against human HeLa cells after 72 hrs by MTT assay
[2] = test system: HeLa; assay: Induction of apoptosis in human HeLa cells assessed as increase in PARP cleavage at 5 uM after 48 hrs by Western blotting analysis
[3] = test system: HeLa C3; assay: Induction of apoptosis in human HeLaC3 cells assessed as caspase-3 activation at 1 uM after 72 hrs by YFP/CFP-based FRET analysis
[4] = test system: HeLa C3; assay: Induction of apoptosis in human HeLaC3 cells assessed as caspase-3 activation at 5 uM after 72 hrs by YFP/CFP-based FRET analysis
[5] = test system: HeLa; assay: Induction of apoptosis in human HeLa cells assessed as increase in PARP cleavage at 5 uM after 24 hrs by Western blotting analysis
[6] = test system: HeLa C3; assay: Induction of apoptosis in human HeLaC3 cells assessed as caspase-3 activation at 10 uM after 72 hrs by YFP/CFP-based FRET analysis
[7] = test system: HeLa C3; assay: Induction of apoptosis in human HeLaC3 cells assessed as caspase-3 activation at 2.5 uM after 72 hrs by YFP/CFP-based FRET analysis
[8] = test system: HeLa; assay: Induction of apoptosis in human HeLa cells assessed as increase in PARP cleavage at 10 uM after 48 hrs by Western blotting analysis
[9] = test system: HeLa; assay: Induction of apoptosis in human HeLa cells assessed as increase in PARP cleavage at 10 uM after 24 hrs by Western blotting analysis

Compound | IC50 [1] | Activity [2] | Activity [3] | Activity [4] | Activity [5] | Activity [6] | Activity [7] | Activity [8] | Activity [9]
CO[C@@]12C=C3C(=O)c4c(O)cc(O)c(CC=C(C)C)c4O[C@@]34[C@@H](C1)C(C)(C)O[C@@]4(CC=C(C)C)C2=O [GAUDICHAUDIONE H] | 900 nM | Active | inactive | Active | Active | Active | Active | – | –
CC(C)=CCC1(CC=C(C)C)C(=O)C(O)=C(O)c2oc3cc4c(c(O)c3c(=O)c21)C=CC(C)(C)O4 [OLIGANTHIN A] | 1580 nM | Active | inactive | Active | Active | Active | Active | – | –
CC(C)=CCC1(O)C(=O)c2oc3cc4c(c(O)c3c(=O)c2C(CC=C(C)C)(CC=C(C)C)C1=O)C=CC(C)(C)O4 (stereo unspecified) [OLIGANTHIN B] | 1520 nM | – | inactive | Active | – | Active | inactive | Active | Active
CC(C)=CCc1c(O)cc2oc3c(c(=O)c2c1O)C(CC=C(C)C)(CC=C(C)C)C(=O)C(O)(CC=C(C)C)C3=O (stereo unspecified) [OLIGANTHIN C] | 4150 nM | – | inactive | inactive | – | Active | inactive | – | –
CC(=O)CC1(O)C(=O)c2oc3cc4c(c(O)c3c(=O)c2C(CC=C(C)C)(CC=C(C)C)C1=O)C=CC(C)(C)O4 (stereo unspecified) [OLIGANTHIN D] | 7820 nM | – | inactive | inactive | – | Active | inactive | – | –

From ChEMBL document CHEMBL2010690, “Identification and evaluation of apoptotic compounds from Garcinia oligantha” (Bioorg Med Chem Lett, 2012)
